In this test the target is T1, mouse SGLT4 (Mus musculus, UniProt Q8VDT1).
T1 construct: expressed in transfected cells; host or cells: HEK293T
T1 sequence (Q8VDT1 1-685): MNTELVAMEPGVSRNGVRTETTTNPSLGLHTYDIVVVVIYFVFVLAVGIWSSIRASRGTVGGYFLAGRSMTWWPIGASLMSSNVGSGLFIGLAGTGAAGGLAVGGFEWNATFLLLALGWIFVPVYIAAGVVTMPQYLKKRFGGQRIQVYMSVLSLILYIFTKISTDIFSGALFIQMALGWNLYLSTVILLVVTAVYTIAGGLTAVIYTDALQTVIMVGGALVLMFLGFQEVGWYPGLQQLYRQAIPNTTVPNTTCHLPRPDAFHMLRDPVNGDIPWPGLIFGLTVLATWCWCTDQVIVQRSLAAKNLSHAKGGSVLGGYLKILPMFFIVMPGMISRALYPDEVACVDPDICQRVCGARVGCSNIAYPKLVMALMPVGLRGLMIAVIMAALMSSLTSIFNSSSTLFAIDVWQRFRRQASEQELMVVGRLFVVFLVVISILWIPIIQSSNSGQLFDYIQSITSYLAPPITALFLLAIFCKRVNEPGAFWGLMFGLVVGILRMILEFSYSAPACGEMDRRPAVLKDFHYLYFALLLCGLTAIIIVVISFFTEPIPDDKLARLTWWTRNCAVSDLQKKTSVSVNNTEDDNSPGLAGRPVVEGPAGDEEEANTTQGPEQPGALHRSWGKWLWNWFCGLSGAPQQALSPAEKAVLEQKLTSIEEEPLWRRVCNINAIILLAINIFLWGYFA
As to the kind of experiment: Radioactive uptake assay (saturation kinetics) in HEK293T cells expressing mouse SGLT4. In kind it is cell-based. As to the method:
For a typical transporter experiment we proceeded as follows. […] To minimize cell loss during the various washing steps in the radioactive uptake experiments, the wells where the cells were seeded were previously coated with poly- D-lysine, which improved their adhesion to the plastic surface of the wells. For this, each well of the 24-well plates was treated with 200 µl of a 0.01% poly-L-lysine solution for 10 min, washed 3 times with 1 ml of sterilized water and left to dry for 2 h. Only then could the 24-well plates be seeded with the appropriate cell lines and cultured overnight at 37 °C in 5% CO2.
On day two, the radioactive uptake assay could be performed. The cell culture media was removed by aspiration and cells were incubated for 20 min at 37 °C and 5% CO2 with a basal medium (10 mM HEPES, pH 7.4, 1 mM CaCl2, 1 mM MgCl2, 2 mM KCl) containing 140 mM choline chloride to deplete intracellular […] ions. This was subsequently replaced with the uptake medium (basal medium + 140 mM NaCl, 25 μM cytochalasin B, 1 mg/ml BSA) containing either radioactive U-[^14C]-mannose (15,000 cpm/well) or 2-[^3H]-1,5-AG (30,000 cpm/well) and respectively, non-radioactive mannose or 1,5-AG, at the required concentration in the experiment. Importantly, when measuring the transport of mannose, the uptake media also contained 0.5 mM glucose. This resulted from the need to reduce the background transport of mannose in control HEK293T cells in order to optimize the transport assay for this sugar in our model cell lines. Consequently, after testing various inhibitors (Supplementary Fig. 1), 0.5 mM glucose + 25 µM cytochalasin B appeared as the best combination to decrease efficiently the endogenous transport of mannose in control cells without affecting the transport of mannose in model cell lines overexpressing SGLT4 and SGLT5. […]
Once the uptake medium was added to the cells, the plates were incubated at 37 °C in 5% CO2 during the required time. […] In each experiment, the transport activities were calculated after subtracting a “blank” value, corresponding to the radioactivity in the appropriate control cells (HEK293T cells that were stably or transiently transfected with one of the parent plasmids pEF6/MycHisA, pEF6HisB, pUB82 or pUB83 with no inserted cDNA) that were analyzed in parallel. […]
Supplementary Fig. 4: Transport activities for 1,5-anhydroglucitol and mannose of recombinant mouse SGLT4 and SGLT5 isoforms measured in HEK293T cells.
Transport was measured in 24 well plates with 0.6x10^6 cells during 30 mins at 37°C in 5% CO2 in the presence of the indicated concentrations of 2-[1H+3H]-1,5-AG for both mSGLT4 (A) and mSGLT5 (B) and U-[12C+14C]-mannose (C) for mSGLT4. […]

As a reminder, the Km is the concentration of substrate that gives half-maximal velocity.

Consider `OC[C@H]1OC[C@H](O)[C@@H](O)[C@@H]1O` [1,5-AG, 1,5-anhydroglucitol], for which the “mSGLT4 Vmax” value (30 min, Supplementary Fig. 4) was 152 pmol/min/100 000 cells. For the same compound, the Km (30 min, Supplementary Fig. 4, read-out: mSGLT4 Km) was greater than 5 mM.

Consider `OC[C@H]1OC(O)[C@@H](O)[C@@H](O)[C@@H]1O` (stereo partly shown) [Mannose, mannose], for which the “mSGLT4 Vmax” value (30 min, Supplementary Fig. 4) stood at 29 pmol/min/100 000 cells. Also, for the setting “mannose versus 1,5-AG”, the “Km of mouse SGLT4 lower for mannose than for 1,5-AG” value was 25 fold.
